Reference: patent US20170183318A1, “AMIDE COMPOUNDS, METHODS FOR PREPARATION, AND USE THEREOF AS AGENTS FOR THE TREATMENT AND PREVENTION OF DISEASES CAUSED BY RNA- AND/OR DNA-CONTAINING VIRUSES, AND CONCOMITANT DISEASES” (OBSCHESTVO S OGRANICHENNOI OTVETSTVENNOSTIYU …, priority 2014, published 2017)

Experiments:
Staphylococcus aureus = experiment: Murine model of staphylococcal pneumonia (bacterial growth from lung imprints); type: in vivo, outbred mice; details: 5 days before and 2 days after S. aureus infection, lung imprints on Columbia agar, control 82.5
Method: The efficiency of the compounds was evaluated in outbred mice (females) infected with Staphylococcus aureus (mouse-adapted strain). The administration of the compounds was started 5 days before infection, orally at doses of 15 and 30 mg/kg in a volume of 0.2 mL. On day 5, the mice were infected intranasally under brief ether anesthesia by administration of Staphylococcus aureus at a dose of 10^9 CFU in a volume of 0.05 mL. One hour after infection, the administration of the compounds to the mice was continued at the above-indicated doses for additional 2 days. The reference drug was ampicillin administered intravenously at a single dose of 20 mg/kg. The control was mice infected with Staphylococcus aureus intranasally and treated with PBS. The mice were sacrificed two days after, the breast was dissected, and lung imprints were made in Petri dishes with Columbia agar. After incubation for 24 hours at 30° C., the presence (or absence) of Staphylococcus aureus bacterial growth was fixed in comparison with the control. The intensity of bacterial growth was evaluated in scores and expressed in %.

[1] = tested on: herpes simplex virus belonging to antigenic type 2; experiment: Murine model of experimental herpetic meningoencephalitis (mortality); type: in vivo, white outbred mice; details: Mus musculus, po, 336 h
Method: In the study, herpes simplex virus belonging to antigenic type 2 was used. White outbred mice weighing 7-8 g were infected i/c (intracerebrally) in a volume of 0.05 ml/mouse comprising a dose of 10LD50. The infectious dose of the virus that caused 100% mortality in mice was 10LD50. Each experimental group comprised 20 mice. Intact animals served as control and were hold in a separate room under the same conditions as the experimental animals. The antiviral activity of the compounds of general formula I was studied by oral administration of the compounds to infected mice once daily at a dose of 30 mg/kg/mouse 24, 48, 72, 96, and 120 hours after infection of the animals with the virus. The mice of the control group were administered placebo (0.2 mL of physiological solution) under the same conditions. The animals were monitored for 14 days after infection by registration the mouse death in the groups.
(§1) Each animal was subjected to once-daily observation. The observation included the assessment of general behavior and body condition of animals. The animals were handled according to the International Standards.
(§2) The activity of the compounds was evaluated by comparing mortality rates in the groups of animals administered a preparation and placebo.

[2] = tested on: Sendai strain of parainfluenza virus; experiment: Antiviral activity against parainfluenza virus in mice (mortality); type: in vivo, white outbred mice; details: Mus musculus, po, 336 h, 10LD50 intranasally, 30 mg/kg orally once daily 24-120 h after infection, 14 days observation, 20 mice per group, virus control 75.0
Method: In the study the Sendai strain of parainfluenza virus was used. White outbred mice weighing 10-12 g were infected intranasally with the Sendai strain of parainfluenza virus adapted to mouse lungs under brief ether anesthesia in a volume of 0.05 ml/mouse. The infectious dose of the virus that caused 70-80% mortality in mice was 10LD50. Each group used in the experiment comprised 20 animals. Intact animals served as control and were hold in a separate room under the same conditions as the experimental animals. The antiviral activity of the compounds of general formula I was studied by oral administration of the compounds to infected mice once daily at a dose of 30 mg/kg/mouse 24, 48, 72, 96, and 120 hours after infection of the animals with the virus. The mice of the control group were administered placebo (0.2 mL of physiological solution) under the same conditions. The animals were monitored for 14 days after infection by registration the mouse death in the groups.
as §1, with “animals. In days of administration of preparations, the observation was conducted before administration of a preparation in a certain time and about two hours after administration.” for “animals.”
as §2

human adenovirus type 5 = experiment: Model of experimental adenovirus infection (destructive processes in the liver, electron microscopy); type: in vivo; details: newborn Syrian hamsters, 30 mg/kg orally 12, 36, 60 h after infection, liver 72 h after infection, virus control Intensive damages
Method: In the study, human adenovirus type 5 was used. In order to play adenovirus infection were used Newborn Syrian hamsters, in which the virus caused disseminated viral infection with damage to liver, lung and heart, were used to reproduce the viral infection. The animals were studied 48 hours after birth. Each group comprised 5 hamsters. The virus was inoculated subcutaneously in a volume of 0.1 mL, at a dose of 10^5 TCID50. The treatment was carried out orally with the compounds of general formula I at a dose of 30 mg/kg of body weight 12, 36, and 60 hours after infection. The animals of the placebo group were administered phosphate buffered saline. Intact animals served as control and were hold in a separate room under the same conditions as the experimental animals. 72 hours after infection, the animals of each group were euthanized, dissected, and the liver was isolated. The therapeutic effect was evaluated by the action on ultrastructural features of the morphogenesis of adenovirus infection in the liver by electron microscopy.

[3] = tested on: human respiratory syncytial virus (strain A2); experiment: Antiviral activity against RS virus in a murine model of suppressed immune system (lung edema); type: in vivo; details: Balb/c mice, cyclophosphan-suppressed, RS-virus pneumonia; 30 mg/kg once daily for 5 days; M ± SD, n = 5; scores from possible 4
Method: Antiviral activity of the chemical compounds against human respiratory syncytial virus (strain A2, an infectious titer of 5×10^6 TCID50/mL) was assessed in a Balb/c murine model of viral pneumonia. The virus was inoculated to animals intranasally in a volume of 50 μL under brief ether anesthesia. The immune response in animals to RS virus was suppressed by intraperitoneal administration of cyclophosphan at a dose of 100 mg/kg 5 days before infection. The studied compounds were administered according to the treatment regimen once daily at a dose of 30 mg/kg for 5 days, starting 24 hours after infection. The activity of the compounds was determined by a reduction in edema of the lung infected with respiratory syncytial virus, compared to the control, on day 5 after infection.

[4] = Rat model of nasopharyngitis induced by formalin (nasal mucosa changes, cell elements in nasal lavage); type: in vivo; details: Wistar rats, 18 mg/kg for 3 days; for Mucous membrane of nasal passages: Without changes (number of animals): number of animals out of n = 10, control 0 of 20; for Mucous membrane of nasal passages: Discharge mucus from the nasal passages (number of animals): number of animals out of n = 10, control 20 of 20
Method: Nasopharyngitis was induced by intranasal administration of formalin to each nasal passage of rats.
The administration of formalin to the nasal passages of rats leads to the dissemination of inflammation to adjacent tissues, resulting in a clinical pattern similar to the symptoms of nasopharyngitis in a human.
After an acclimatization period, the following groups were formed: • intact animals administered intragastrically a physiological solution in an amount of 0.2 ml, without induction of nasopharyngitis; • a control group consisted of animals administered intragastrically a physiological solution in an amount of 0.2 ml for 3 days after induction of nasopharyngitis; and • animals administered the studied compounds at a dose of 18 mg/kg for 3 days after induction of nasopharyngitis.
Clinical observation of each animal was performed every day at least twice daily.
The caused pathology was characterized by hyperplasia, increased number of caliciform cells, pronounced infiltration of mononuclear cells and leucocytes, and mucus hyperproduction by submucosal glands.
After euthanasia, the inflammation pattern in the nasal passages and throat was studied in each group of animals. The nasal passages were washed with 5 mL of physiological solution and the score of cell elements were counted in 1 μL.

Row | SMILES | Bacterial growth, in % (Staphylococcus aureus; 15 mg/kg orally) | Bacterial growth, in % (Staphylococcus aureus; 30 mg/kg orally) | mortality at 30 mg/kg [1] [%] | mortality at 30 mg/kg [2] [%] | Evaluation of damage (intensity of destructive processes in the liver) (human adenovirus type 5) | Degree of lung edema on day 5 after infection, score [3] [score] | Mucous membrane of nasal passages: Without changes (number of animals) [4] | Mucous membrane of nasal passages: Discharge mucus from the nasal passages (number of animals) [4]
1 | O=C(O)CCCC(=O)NCCC1CCCN1 (stereo not drawn) [Compound 2] | 50 (sporadic colonies (up to 100)) | 55% | 55 | 35 | Mild damage | 1.95 ± 0.32 | 3 | 7
2 | O=C(O)CCCC(=O)NCCC1CCCCN1 (stereo not drawn) [Compound 6] | 45% | 55% | 60 | 25 | Mild damage | 0.90 ± 0.22 | 4 | 6
3 | O=C(O)CCCC(=O)NCCCc1cccs1 [Compound 34] | 25 (sporadic colonies (up to 10)) | 50 (sporadic colonies (up to 100)) | 70 | 15 | Mild damage | 1.75 ± 0.4 | 3 | 7
4 | CC(Cc1cnc[nH]1)NC(=O)CCCC(=O)O (stereo not drawn) [Compound 115] | 55% | 25 (sporadic colonies (up to 10)) | 65 | 30 | Mild damage | 1.60 ± 0.5 | 3 | 7
5 | O=C(O)CCCC(=O)NCCCc1c[nH]cn1 [Compound 118] | 55% | 50 (sporadic colonies (up to 100)) | 70 | 30 | Mild damage | 1.85 ± 0.45 | 5 | 5
6 | CC(C)N(CCc1cnc[nH]1)C(=O)CCCC(=O)O [Compound 141] | 55% | 40% | 50 | 40 | Mild damage | 0.55 ± 0.21 | 4 | 6
7 | Cc1csc(CCNC(=O)CCCC(=O)O)n1 [Compound 197] | 45% | 60% | 55 | 25 | Mild damage | 1.15 ± 0.23 | 6 | 4
8 | O=C(O)CCCC(=O)NC(Cc1c[nH]cn1)C(=O)O (stereo not drawn) [Compound 251] | 55% | 20% | 65 | 35 | Mild damage | 0.90 ± 0.21 | 4 | 6
9 | O=C(O)CCCC(=O)NCCc1nc2ccccc2s1 [Compound 275] | 35% | 40% | 60 | 40 | Mild damage | 1.80 ± 0.20 | 3 | 7
